Measured values published in article PMC11224111, “Optimizing the pharmacokinetics of an ^211At-labeled RGD peptide with an albumin-binding moiety via the administration of an albumin-binding inhibitor” (European Journal of Nuclear Medicine and Molecular Imaging, 2024).
Marks after values point to notes of the source that are not given here.

Experiment: Biodistribution of [^211At]1 and [^125I]2 in normal mice with ibuprofen or IPBA as albumin-binding inhibitor
Conditions: 4 h after administration
Procedure: To evaluate the effects of albumin-binding inhibitors in normal mice, [^211At]1 (37 kBq) and [^125I]2 (37 kBq) were intravenously coadministered. […] The total blood albumin (1.1 µmol) in normal mice was calculated from the albumin concentration (3.0 g/dL ≈ 455 µM) in blood, which was informed from Japan SLC, Inc., total blood volume (2.5 mL) as 8% of body weight, and the molecular weight of albumin as 66,000 g/mol. […]
Table S1. Biodistribution of radioactivity 4 h after administration of [^211At]1 and [^125I]2 in normal mice.

[1] = IPBA 10 eq at 1 h postinjection
[2] = ibuprofen 10 eq at 1 h postinjection

## Ga-DOTA-K([^125I]IPBA)-c(RGDfK) [[^125I]2]
IPBA 2 eq at 1 h postinjection
  Radioactivity, Blood: 7.26 (0.34)^ ***, a, b % injected activity per gram
  Radioactivity, Bone: 1.22 (0.11) ^a, b % injected activity per gram
  Radioactivity, Brain: 0.20 (0.03)^ *,^ a % injected activity per gram
  Radioactivity, Heart: 2.49 (0.13)^ **,^ a % injected activity per gram
  Radioactivity, Kidney: 3.46 (0.17)^ * % injected activity per gram
  Radioactivity, L. intestine: 1.14 (0.31)^ ** % injected activity per gram
  Radioactivity, Liver: 1.58 (0.12)^ a % injected activity per gram
  Radioactivity, Lung: 4.22 (0.49)^ ***,^ a, b % injected activity per gram
  Radioactivity, Muscle: 1.02 (0.07)^ *,^ a, b % injected activity per gram
  Radioactivity, Neck: 0.32 (0.10) % injected activity
  Radioactivity, Pancreas: 1.41 (0.10)^ *,^ a, b % injected activity per gram
  Radioactivity, S. intestine: 1.28 (0.03)^ **,^ a % injected activity per gram
  Radioactivity, Spleen: 1.15 (0.11)^ *,^ a, b % injected activity per gram
  Radioactivity, Stomach: 1.21 (0.07)^ * % injected activity
IPBA 5 eq at 1 h postinjection
  Radioactivity, Blood: 2.06 (0.24)^ ***, a, b, c % injected activity per gram
  Radioactivity, Bone: 0.73 (0.06)^ **,^ a, b, c % injected activity per gram
  Radioactivity, Brain: 0.15 (0.02)^ a % injected activity per gram
  Radioactivity, Heart: 0.83 (0.09)^ **,^ a, b, c % injected activity per gram
  Radioactivity, Kidney: 3.52 (0.08)^ *, b % injected activity per gram
  Radioactivity, L. intestine: 0.87 (0.25) % injected activity per gram
  Radioactivity, Liver: 1.20 (0.12)^ *,^ a, b, c % injected activity per gram
  Radioactivity, Lung: 1.92 (0.16)^ **,^ a, b, c % injected activity per gram
  Radioactivity, Muscle: 0.47 (0.04)^ **,^ a, b, c % injected activity per gram
  Radioactivity, Neck: 0.07 (0.02)^ a % injected activity
  Radioactivity, Pancreas: 0.79 (0.10)^ **,^ a, b, c % injected activity per gram
  Radioactivity, S. intestine: 1.33 (0.14) % injected activity per gram
  Radioactivity, Spleen: 0.93 (0.58)^ a, b % injected activity per gram
  Radioactivity, Stomach: 1.11 (0.34)^ **,^ a % injected activity
[1]
  Radioactivity, Blood: 0.95 (0.12)^ **, a, b, c, d % injected activity per gram
  Radioactivity, Bone: 0.77 (0.07)^ **,^ a, b, c % injected activity per gram
  Radioactivity, Brain: 0.15 (0.03)^ a % injected activity per gram
  Radioactivity, Heart: 0.58 (0.10)^ ***,^ a, b, c % injected activity per gram
  Radioactivity, Kidney: 3.60 (0.43) % injected activity per gram
  Radioactivity, L. intestine: 0.98 (0.31) ^*, b % injected activity per gram
  Radioactivity, Liver: 0.84 (0.06)^ a, b, c % injected activity per gram
  Radioactivity, Lung: 1.33 (0.09)^ ***,^ a, b, c % injected activity per gram
  Radioactivity, Neck: 0.03 (0.02)^ b, c, d % injected activity
  Radioactivity, Pancreas: 0.60 (0.15)^ a, b, c, d % injected activity per gram
  Radioactivity, S. intestine: 1.17 (0.13)^ a % injected activity per gram
  Radioactivity, Spleen: 1.00 (0.19)^ **,^ a, b % injected activity per gram
  Radioactivity, Stomach: 0.94 (0.12)^ ** % injected activity
[2]
  Radioactivity, Blood: 10.19 (0.64)^ ***, a % injected activity per gram
  Radioactivity, Bone: 1.56 (0.16)^ a % injected activity per gram
  Radioactivity, Brain: 0.25 (0.05)^ a % injected activity per gram
  Radioactivity, Heart: 3.24 (0.29)^ * % injected activity per gram
  Radioactivity, Kidney: 3.10 (0.24) % injected activity per gram
  Radioactivity, L. intestine: 1.87 (0.66) ^* % injected activity per gram
  Radioactivity, Liver: 1.81 (0.24)^ a % injected activity per gram
  Radioactivity, Lung: 6.02 (0.99)^ *,^ a % injected activity per gram
  Radioactivity, Muscle: 1.19 (0.07) % injected activity per gram
  Radioactivity, Neck: 0.36 (0.12)^ *,^ a % injected activity
  Radioactivity, Pancreas: 1.78 (0.09) % injected activity per gram
  Radioactivity, S. intestine: 1.49 (0.12)^ * % injected activity per gram
  Radioactivity, Spleen: 1.49 (0.18)^ a % injected activity per gram
  Radioactivity, Stomach: 1.16 (0.03)^ * % injected activity
Vehicle at 1 h postinjection
  Radioactivity, Blood: 13.28 (0.80)^ *** % injected activity per gram
  Radioactivity, Bone: 1.84 (0.12) % injected activity per gram
  Radioactivity, Brain: 0.38 (0.09) % injected activity per gram
  Radioactivity, Heart: 4.05 (0.98) % injected activity per gram
  Radioactivity, Kidney: 3.32 (0.15) % injected activity per gram
  Radioactivity, L. intestine: 1.59 (0.38) % injected activity per gram
  Radioactivity, Liver: 2.51 (0.07) % injected activity per gram
  Radioactivity, Lung: 7.38 (0.61)^ * % injected activity per gram
  Radioactivity, Muscle: 1.28 (0.06) % injected activity per gram
  Radioactivity, Neck: 0.13 (0.03)^ * % injected activity
  Radioactivity, Pancreas: 1.81 (0.05) % injected activity per gram
  Radioactivity, S. intestine: 1.94 (0.14)^ ** % injected activity per gram
  Radioactivity, Spleen: 2.11 (0.08) % injected activity per gram
  Radioactivity, Stomach: 0.80 (0.12) % injected activity

## Ga-DOTA-K([^211At]APBA)-c(RGDfK) [[^211At]1]
IPBA 2 eq at 1 h postinjection
  Radioactivity, Blood: 8.33 (0.29)^ a, b % injected activity per gram
  Radioactivity, Bone: 1.35 (0.06)^ a % injected activity per gram
  Radioactivity, Brain: 0.24 (0.04)^ a % injected activity per gram
  Radioactivity, Heart: 2.90 (0.09) ^a, b % injected activity per gram
  Radioactivity, Kidney: 3.36 (0.20) % injected activity per gram
  Radioactivity, L. intestine: 1.53 (0.39) % injected activity per gram
  Radioactivity, Liver: 1.68 (0.15)^ a % injected activity per gram
  Radioactivity, Lung: 4.96 (0.40)^ a, b % injected activity per gram
  Radioactivity, Muscle: 1.16 (0.09) % injected activity per gram
  Radioactivity, Neck: 0.23 (0.07)^ a % injected activity
  Radioactivity, Pancreas: 1.55 (0.15)^ a, b % injected activity per gram
  Radioactivity, S. intestine: 1.47 (0.05) % injected activity per gram
  Radioactivity, Spleen: 1.54 (0.18) % injected activity per gram
  Radioactivity, Stomach: 1.84 (0.32) % injected activity
IPBA 5 eq at 1 h postinjection
  Radioactivity, Blood: 3.46 (0.33)^ a, b, c % injected activity per gram
  Radioactivity, Bone: 0.95 (0.08)^ a, b % injected activity per gram
  Radioactivity, Brain: 0.16 (0.01)^ a % injected activity per gram
  Radioactivity, Heart: 1.38 (0.13)^ a, b, c % injected activity per gram
  Radioactivity, Kidney: 3.67 (0.10) ^b % injected activity per gram
  Radioactivity, L. intestine: 0.84 (0.22) ^b % injected activity per gram
  Radioactivity, Liver: 1.35 (0.16)^ a, b, c % injected activity per gram
  Radioactivity, Lung: 2.84 (0.27)^ a, b, c % injected activity per gram
  Radioactivity, Muscle: 0.62 (0.04)^ a, b, c % injected activity per gram
  Radioactivity, Neck: 0.08 (0.02)^ a, b % injected activity
  Radioactivity, Pancreas: 1.03 (0.15)^ a, b, c % injected activity per gram
  Radioactivity, S. intestine: 1.35 (0.13) % injected activity per gram
  Radioactivity, Spleen: 1.19 (0.73)^ a % injected activity per gram
  Radioactivity, Stomach: 1.45 (0.45)^ a, b % injected activity
[1]
  Radioactivity, Blood: 1.56 (0.20)^ a, b, c, d % injected activity per gram
  Radioactivity, Bone: 0.98 (0.12)^ a, b, c % injected activity per gram
  Radioactivity, Brain: 0.14 (0.02)^ a % injected activity per gram
  Radioactivity, Heart: 0.78 (0.10)^ a, b, c, d % injected activity per gram
  Radioactivity, Kidney: 3.77 (0.50)^ b % injected activity per gram
  Radioactivity, L. intestine: 0.88 (0.27)^ b % injected activity per gram
  Radioactivity, Liver: 0.80 (0.07)^ a, b, c % injected activity per gram
  Radioactivity, Lung: 1.88 (0.12)^ a, b, c % injected activity per gram
  Radioactivity, Muscle: 0.42 (0.03)^ a, b, c, d % injected activity per gram
  Radioactivity, Neck: 0.03 (0.02)^ b, c, d % injected activity
  Radioactivity, Pancreas: 0.66 (0.17)^ a, b, c, d % injected activity per gram
  Radioactivity, S. intestine: 1.14 (0.08)^ a, b, d % injected activity per gram
  Radioactivity, Spleen: 1.22 (0.17)^ a % injected activity per gram
  Radioactivity, Stomach: 1.30 (0.20)^ d % injected activity
[2]
  Radioactivity, Blood: 10.82 (0.58) ^a % injected activity per gram
  Radioactivity, Bone: 1.57 (0.18)^ a % injected activity per gram
  Radioactivity, Brain: 0.26 (0.03) % injected activity per gram
  Radioactivity, Heart: 3.49 (0.36) % injected activity per gram
  Radioactivity, Kidney: 3.03 (0.24) % injected activity per gram
  Radioactivity, L. intestine: 2.32 (0.57) % injected activity per gram
  Radioactivity, Liver: 1.87 (0.31)^ a % injected activity per gram
  Radioactivity, Lung: 6.44 (1.14) % injected activity per gram
  Radioactivity, Muscle: 1.28 (0.15) % injected activity per gram
  Radioactivity, Neck: 0.18 (0.03)^ a % injected activity
  Radioactivity, Pancreas: 1.85 (0.12) % injected activity per gram
  Radioactivity, S. intestine: 1.58 (0.15) % injected activity per gram
  Radioactivity, Spleen: 1.47 (0.29)^ a % injected activity per gram
  Radioactivity, Stomach: 1.57 (0.21) % injected activity
Vehicle at 1 h postinjection
  Radioactivity, Blood: 14.03 (0.79) % injected activity per gram
  Radioactivity, Bone: 1.88 (0.10) % injected activity per gram
  Radioactivity, Brain: 0.37 (0.11) % injected activity per gram
  Radioactivity, Heart: 3.83 (0.30) % injected activity per gram
  Radioactivity, Kidney: 3.19 (0.20) % injected activity per gram
  Radioactivity, L. intestine: 1.52 (0.35) % injected activity per gram
  Radioactivity, Liver: 2.51 (0.20) % injected activity per gram
  Radioactivity, Lung: 7.69 (0.63) % injected activity per gram
  Radioactivity, Muscle: 1.26 (0.09) % injected activity per gram
  Radioactivity, Neck: 0.05 (0.01) % injected activity
  Radioactivity, Pancreas: 1.88 (0.10) % injected activity per gram
  Radioactivity, S. intestine: 1.85 (0.16) % injected activity per gram
  Radioactivity, Spleen: 2.02 (0.26) % injected activity per gram
  Radioactivity, Stomach: 0.80 (0.10) % injected activity
